# Activity calls are given as the source filed them.
# Experiments:
# [1] = target: T1, Luciferin 4-monooxygenase (Photinus pyralis, UniProt P08659); experiment: Counter Screen for Luciferase-based Assay Positives. [Related pubchem assays: 620, 618, 411 ]
# [2] = tested on: HT-1080; experiment: cytotoxicity in HT1080 fibrosarcoma cells, cell-based, fluorescence readout (AID 620); type: functional; settings: Homo sapiens
# [3] = Luminescence Cell-Based Dose Response HTS to Identify Inhibitors of 5'UTR Stem-Loop Driven Prion Protein mRNA Translation in H4 Neuroglioblastoma Cells. [Related pubchem assays: 1827 (Project Summary), 1813 (Primary HTS)]; type: functional
# [4] = inhibitors of SNCA 5'UTR-driven reporter translation, confirmation, H4 neuroglioma cells, luminescence (AID 1988); type: functional, cell-based
# [5] = Luminescence Cell-Based Dose Confirmation HTS to Identify Inhibitors of Platelet Dense Granule Release. [Related pubchem assays: 1663 (Primary HTS), 1678 (Summary of Project)]; type: functional
# [6] = target: T1, Luciferin 4-monooxygenase; experiment: firefly luciferase enzyme inhibitors, dose response, biochemical, luminescence (AID 1891)
# [7] = cytotoxicity in KRAS-transformed pancreatic duct cells, primary screen, cell-based, fluorescence, HTS (AID 431); type: functional; settings: Homo sapiens;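 further: cell line used: HPDE-C7K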
# [8] = target: Voltage-dependent T-type calcium channel subunit alpha-1H (Homo sapiens, UniProt O95180); type: functional;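 further: channel activity triggered by adding a high calcium stimulation buffer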
# [9] = cytotoxicity in HPDE-C7 cells, cell-based, fluorescence, HTS (AID 430); type: functional; settings: Homo sapiens
# [10] = target: Mitogen-activated protein kinase 10 (Homo sapiens, UniProt P53779); experiment: Dose response biochemical screening assay for inhibitors of c-Jun N-Terminal Kinase 3 (JNK3). [Related pubchem assays: 746 ]
# Chain of Mitogen-activated protein kinase 10 (P53779 whole entry): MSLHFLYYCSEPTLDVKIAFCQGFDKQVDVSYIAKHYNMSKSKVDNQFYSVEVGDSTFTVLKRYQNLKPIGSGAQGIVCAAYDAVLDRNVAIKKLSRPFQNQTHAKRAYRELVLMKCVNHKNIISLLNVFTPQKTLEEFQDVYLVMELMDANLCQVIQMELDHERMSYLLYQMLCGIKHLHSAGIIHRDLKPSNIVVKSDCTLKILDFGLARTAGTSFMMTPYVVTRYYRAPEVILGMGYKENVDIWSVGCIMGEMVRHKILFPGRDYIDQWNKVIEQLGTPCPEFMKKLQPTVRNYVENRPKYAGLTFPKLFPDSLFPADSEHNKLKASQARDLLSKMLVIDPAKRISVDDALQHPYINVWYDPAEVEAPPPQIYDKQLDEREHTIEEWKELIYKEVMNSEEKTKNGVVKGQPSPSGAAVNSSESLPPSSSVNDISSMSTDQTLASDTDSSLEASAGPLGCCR
# [11] = growth suppression of beta-catenin-knockout colon cells, dose response, cell-based, HCT116, human colon tumor (AID 1045); type: functional;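 further: HCT116 colon tumor cells with beta catenin knocked out; cells exposed to compound for 60 hours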
# [12] = growth suppression of PTEN-null colon cells, dose response, cell-based, HCT116 PTEN knockout (AID 1047); type: functional;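 further: HCT116 colon tumor cells with PTEN knocked out; cells exposed to compound for 60 hours before readout; potency for loss of cell viability measured by luminescence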
# [13] = A Cell Based Secondary Assay To Explore Cytotoxicity of Compounds that Sensitize Mycobacterium Tuberculosis to Beta-Lactam Antibiotics.; type: functional
# [14] = target: T2, Calpain-2 catalytic subunit (Sus scrofa, UniProt P43367); experiment: pig calpain II inhibitor potency, dose response, biochemical, fluorogenic peptide substrate (AID 1420); type: functional
# T2 sequence (P43367 whole entry): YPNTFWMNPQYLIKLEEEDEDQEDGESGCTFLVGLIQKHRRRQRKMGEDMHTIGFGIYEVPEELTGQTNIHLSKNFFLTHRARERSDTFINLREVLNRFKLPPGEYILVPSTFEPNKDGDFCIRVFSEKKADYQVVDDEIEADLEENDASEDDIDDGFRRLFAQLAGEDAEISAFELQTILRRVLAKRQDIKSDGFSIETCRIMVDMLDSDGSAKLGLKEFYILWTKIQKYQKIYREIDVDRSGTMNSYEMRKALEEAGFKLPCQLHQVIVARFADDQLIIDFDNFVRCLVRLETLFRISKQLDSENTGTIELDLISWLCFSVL
# [15] = inhibitors of firefly luciferase expression or activity, dose response, H4 neuroglioma cells, luminescence (AID 1990); type: functional, cell-based
# [16] = inhibitors of SNCA 5'UTR-driven translation, confirmation, luminescence, H4 neuroglioblastoma cells, dose confirmation (AID 2454); type: functional, cell-based;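 further: H4 neuroglioblastoma cells carrying an alpha-synuclein 5'UTR luciferase reporter; potency for inhibition of the luciferase signal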
# [17] = target: Large T antigen (Simian virus 40, UniProt P03070); type: functional, Betapolyomavirus macacae;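 further: Confirmatory-stage PubChem screen for compounds that inhibit SV40 T antigen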
# [18] = cells; type: functional, cell-based
# [19] = luciferase reporter signal reduction – luminescence, H4-C neuroglioblastoma cells, dose response (AID 2458); type: functional, cell-based;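 further: H4 neuroglioblastoma cells stably carrying a luciferase reporter gene fusion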
# [20] = target: Nonstructural protein 1 (Influenza A virus, UniProt Q194T2); type: functional, Influenza A virus (A/California/07/2009(H1N1))
# [21] = cytotoxicity in HEK-293T cells, dose response, cytotoxicity control for TCR NF-kB inhibitor project, luminescence, T-cell screen hits (AID 489026); type: functional, cell-based;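 further: cells exposed to compound about 14 hours before the viability readout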
# [22] = target: Estrogen receptor beta (Homo sapiens, UniProt Q92731);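 further: recombinant ER-beta bound to coactivator SRC1 peptide in presence of estradiol agonist; inhibitors block coactivator peptide binding and lower the FRET signal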
# [23] = target: T3, Aryl hydrocarbon receptor (Homo sapiens, UniProt P35869); experiment: Luminescence-based cell-based high throughput dose response assay for activators of the Aryl Hydrocarbon Receptor (AHR). [Related pubchem assays: 2796 (Primary screen (AHR activators in singlicate)), 2845 (Confirmation screen (AHR activators in triplicate)), 434939 (Counterscreen (PXR activators in triplicate)), 2804 (Summary (AHR activators))]; type: ADME
# T3 sequence (P35869 whole entry): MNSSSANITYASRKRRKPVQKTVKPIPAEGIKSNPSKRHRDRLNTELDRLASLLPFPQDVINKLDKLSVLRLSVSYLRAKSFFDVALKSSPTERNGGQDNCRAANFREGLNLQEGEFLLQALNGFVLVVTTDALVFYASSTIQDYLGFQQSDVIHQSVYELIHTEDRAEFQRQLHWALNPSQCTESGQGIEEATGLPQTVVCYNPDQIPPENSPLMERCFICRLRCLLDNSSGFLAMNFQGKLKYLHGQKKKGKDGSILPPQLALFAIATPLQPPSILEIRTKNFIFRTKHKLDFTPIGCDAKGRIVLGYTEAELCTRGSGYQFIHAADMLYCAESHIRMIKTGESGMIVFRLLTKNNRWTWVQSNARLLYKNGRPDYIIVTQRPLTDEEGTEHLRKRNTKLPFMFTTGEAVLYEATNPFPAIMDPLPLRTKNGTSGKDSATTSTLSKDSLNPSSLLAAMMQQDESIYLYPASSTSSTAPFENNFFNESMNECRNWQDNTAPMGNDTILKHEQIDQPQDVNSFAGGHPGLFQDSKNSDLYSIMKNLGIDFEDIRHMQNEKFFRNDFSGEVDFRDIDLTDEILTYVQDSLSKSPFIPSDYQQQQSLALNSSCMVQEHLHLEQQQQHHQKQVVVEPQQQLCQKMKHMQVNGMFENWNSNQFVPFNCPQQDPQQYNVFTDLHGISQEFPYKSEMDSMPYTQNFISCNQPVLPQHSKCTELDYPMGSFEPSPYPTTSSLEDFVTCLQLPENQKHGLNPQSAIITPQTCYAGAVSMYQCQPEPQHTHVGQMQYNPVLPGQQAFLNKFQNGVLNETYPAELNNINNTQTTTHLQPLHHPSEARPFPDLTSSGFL
# [24] = target: Peroxisome proliferator-activated receptor gamma/Nuclear receptor coactivator 1 (Homo sapiens, UniProt P37231); type: functional;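 further: agonist potency as compounds enhance coactivator SRC-1 recruitment to PPARgamma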
# Chain of Peroxisome proliferator-activated receptor gamma/Nuclear receptor coactivator 1 (P37231 whole entry): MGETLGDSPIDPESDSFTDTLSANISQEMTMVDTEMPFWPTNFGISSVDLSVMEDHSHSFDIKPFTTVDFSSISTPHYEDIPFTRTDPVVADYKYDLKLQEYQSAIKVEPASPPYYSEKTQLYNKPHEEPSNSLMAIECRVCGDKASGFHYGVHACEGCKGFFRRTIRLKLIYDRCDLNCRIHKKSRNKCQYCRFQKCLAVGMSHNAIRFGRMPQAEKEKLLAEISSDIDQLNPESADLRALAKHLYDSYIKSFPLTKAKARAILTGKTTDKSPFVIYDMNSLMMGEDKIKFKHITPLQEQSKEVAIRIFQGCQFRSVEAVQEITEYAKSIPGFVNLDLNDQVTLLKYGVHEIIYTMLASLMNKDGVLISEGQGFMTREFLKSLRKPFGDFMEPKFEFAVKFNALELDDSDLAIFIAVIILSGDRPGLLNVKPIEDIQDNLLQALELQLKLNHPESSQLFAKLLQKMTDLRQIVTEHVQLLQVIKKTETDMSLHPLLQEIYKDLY
# Chain of Peroxisome proliferator-activated receptor gamma/Nuclear receptor coactivator 1 (Q15788 whole entry, further chain): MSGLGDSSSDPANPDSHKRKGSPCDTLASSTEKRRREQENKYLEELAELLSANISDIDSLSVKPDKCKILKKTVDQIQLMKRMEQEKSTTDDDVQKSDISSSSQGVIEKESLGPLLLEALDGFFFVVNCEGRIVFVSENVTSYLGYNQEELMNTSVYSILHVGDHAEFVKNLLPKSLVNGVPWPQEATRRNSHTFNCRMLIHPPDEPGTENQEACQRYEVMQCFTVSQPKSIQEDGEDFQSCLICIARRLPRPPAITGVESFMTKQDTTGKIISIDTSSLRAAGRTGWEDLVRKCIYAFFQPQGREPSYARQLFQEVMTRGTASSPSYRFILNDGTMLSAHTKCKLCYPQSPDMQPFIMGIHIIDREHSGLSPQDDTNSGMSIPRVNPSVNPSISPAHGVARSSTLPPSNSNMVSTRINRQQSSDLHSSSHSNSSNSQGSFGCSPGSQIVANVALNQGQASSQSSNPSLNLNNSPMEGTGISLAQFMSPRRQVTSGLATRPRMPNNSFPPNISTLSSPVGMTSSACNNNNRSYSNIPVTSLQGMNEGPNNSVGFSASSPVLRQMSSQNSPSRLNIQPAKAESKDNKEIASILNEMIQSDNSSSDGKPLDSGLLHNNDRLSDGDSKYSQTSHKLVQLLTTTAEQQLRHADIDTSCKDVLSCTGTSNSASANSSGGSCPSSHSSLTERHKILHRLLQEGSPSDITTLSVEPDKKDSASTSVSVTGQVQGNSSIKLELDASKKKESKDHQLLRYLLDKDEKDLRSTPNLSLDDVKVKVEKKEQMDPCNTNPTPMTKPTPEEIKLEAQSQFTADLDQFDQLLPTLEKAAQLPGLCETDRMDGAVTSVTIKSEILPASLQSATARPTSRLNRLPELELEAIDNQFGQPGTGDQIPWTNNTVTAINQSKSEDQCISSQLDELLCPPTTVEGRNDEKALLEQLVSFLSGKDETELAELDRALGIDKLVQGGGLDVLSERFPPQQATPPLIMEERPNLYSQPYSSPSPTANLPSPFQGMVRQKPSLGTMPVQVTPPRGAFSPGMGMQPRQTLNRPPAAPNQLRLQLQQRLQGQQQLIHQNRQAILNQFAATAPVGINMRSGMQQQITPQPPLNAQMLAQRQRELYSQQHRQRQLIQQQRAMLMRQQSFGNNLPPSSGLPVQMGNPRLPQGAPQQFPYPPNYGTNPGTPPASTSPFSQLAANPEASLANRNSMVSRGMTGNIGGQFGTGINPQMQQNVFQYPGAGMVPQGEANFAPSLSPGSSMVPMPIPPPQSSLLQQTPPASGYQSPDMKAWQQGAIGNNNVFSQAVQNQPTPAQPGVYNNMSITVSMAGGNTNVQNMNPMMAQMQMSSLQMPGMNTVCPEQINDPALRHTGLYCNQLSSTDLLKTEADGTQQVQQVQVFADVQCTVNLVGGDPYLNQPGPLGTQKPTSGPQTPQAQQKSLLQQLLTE
# [25] = target: Peroxisome proliferator-activated receptor gamma/Nuclear receptor coactivator 2 (Homo sapiens, UniProt P37231); type: functional;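 further: agonist potency for raising coactivator recruitment to the receptor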
# [26] = target: Peroxisome proliferator-activated receptor gamma/Nuclear receptor coactivator 3 (Homo sapiens, UniProt P37231); type: functional;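 further: agonist potency for raising coactivator recruitment to the receptor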
# Chain of Peroxisome proliferator-activated receptor gamma/Nuclear receptor coactivator 3 (P37231 whole entry): as the sequence (P37231 whole entry) above
# Chain of Peroxisome proliferator-activated receptor gamma/Nuclear receptor coactivator 3 (Q9Y6Q9 whole entry, further chain): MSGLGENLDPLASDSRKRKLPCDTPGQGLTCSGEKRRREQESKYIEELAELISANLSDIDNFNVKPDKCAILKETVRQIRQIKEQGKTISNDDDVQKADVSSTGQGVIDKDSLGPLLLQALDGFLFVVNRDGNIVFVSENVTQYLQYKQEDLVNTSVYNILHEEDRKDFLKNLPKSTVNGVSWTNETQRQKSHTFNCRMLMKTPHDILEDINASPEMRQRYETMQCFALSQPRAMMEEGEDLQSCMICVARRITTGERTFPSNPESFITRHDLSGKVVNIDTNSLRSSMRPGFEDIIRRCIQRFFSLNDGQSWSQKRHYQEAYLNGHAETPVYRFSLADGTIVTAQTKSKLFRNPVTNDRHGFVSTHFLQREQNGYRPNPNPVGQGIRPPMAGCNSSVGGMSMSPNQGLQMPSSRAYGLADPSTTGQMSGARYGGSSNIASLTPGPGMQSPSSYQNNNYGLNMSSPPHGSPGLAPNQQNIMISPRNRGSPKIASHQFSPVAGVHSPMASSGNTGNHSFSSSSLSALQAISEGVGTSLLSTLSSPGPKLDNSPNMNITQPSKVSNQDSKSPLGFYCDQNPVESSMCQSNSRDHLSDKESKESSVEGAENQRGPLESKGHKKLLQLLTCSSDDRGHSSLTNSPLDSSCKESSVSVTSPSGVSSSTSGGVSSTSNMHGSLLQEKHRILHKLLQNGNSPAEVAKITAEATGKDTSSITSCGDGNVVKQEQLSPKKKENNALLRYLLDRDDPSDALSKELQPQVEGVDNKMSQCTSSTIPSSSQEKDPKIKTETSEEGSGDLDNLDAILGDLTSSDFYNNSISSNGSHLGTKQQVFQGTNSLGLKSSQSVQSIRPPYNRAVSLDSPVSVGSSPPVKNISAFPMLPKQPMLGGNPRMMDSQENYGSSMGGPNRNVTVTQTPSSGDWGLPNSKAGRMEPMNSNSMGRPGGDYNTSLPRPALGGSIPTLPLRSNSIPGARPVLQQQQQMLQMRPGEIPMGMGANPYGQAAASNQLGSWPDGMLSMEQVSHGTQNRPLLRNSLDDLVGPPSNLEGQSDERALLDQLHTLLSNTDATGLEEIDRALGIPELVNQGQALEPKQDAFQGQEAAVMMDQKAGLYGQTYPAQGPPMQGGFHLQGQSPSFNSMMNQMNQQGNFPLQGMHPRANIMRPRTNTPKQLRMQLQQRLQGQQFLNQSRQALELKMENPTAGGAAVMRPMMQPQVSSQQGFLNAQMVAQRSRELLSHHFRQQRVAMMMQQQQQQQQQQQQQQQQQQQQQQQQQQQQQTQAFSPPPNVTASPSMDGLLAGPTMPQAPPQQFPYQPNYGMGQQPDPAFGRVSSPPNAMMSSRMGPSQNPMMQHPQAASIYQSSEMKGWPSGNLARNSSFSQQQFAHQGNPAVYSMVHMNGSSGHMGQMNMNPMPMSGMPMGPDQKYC
# [27] = target: T4, Streptokinase A (Streptococcus pyogenes serotype M1, UniProt P10520); experiment: S. pyogenes streptokinase expression inhibitors, potency, dose response, plasminogen activation absorbance, OD405 (AID 1914); type: functional, Streptococcus pyogenes M1 GAS;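 further: secreted streptokinase activity via plasminogen activation per viability signal from cell pellet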
# T4 sequence (P10520 whole entry): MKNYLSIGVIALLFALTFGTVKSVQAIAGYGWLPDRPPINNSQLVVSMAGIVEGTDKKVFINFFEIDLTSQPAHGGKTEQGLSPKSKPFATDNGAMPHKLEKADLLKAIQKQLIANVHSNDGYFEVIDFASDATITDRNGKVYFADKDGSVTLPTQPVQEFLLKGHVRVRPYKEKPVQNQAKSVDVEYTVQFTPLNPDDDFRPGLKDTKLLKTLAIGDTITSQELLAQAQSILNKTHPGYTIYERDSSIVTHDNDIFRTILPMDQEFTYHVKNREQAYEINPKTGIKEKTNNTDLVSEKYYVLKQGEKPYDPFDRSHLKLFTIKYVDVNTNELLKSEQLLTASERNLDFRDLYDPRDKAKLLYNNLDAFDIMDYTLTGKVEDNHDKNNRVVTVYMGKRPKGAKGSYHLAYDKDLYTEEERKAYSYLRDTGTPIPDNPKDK
# [28] = tested on: Streptococcus sp. 'group A'; experiment: growth inhibition of control SK(-) GAS strain, dose response, counter-screen for streptokinase expression inhibitor project, luminescence, kanamycin, BacTiterGlo, confirmation (AID 1900); type: functional, organism-based
# [29] = tested on: Streptococcus; experiment: Group A Streptococcus viability loss, dose response, counter-screen for streptokinase expression inhibitor project, luminescence, BacTiterGlo (AID 1915); type: functional, organism-based;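 further: potency for reduction of bacterial viability or growth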
# [30] = target: Cytochrome P450 2C19 (Homo sapiens, UniProt P33261); experiment: Cytochrome panel assay with activity outcomes. Panel member name: p450-cyp2c19 Compounds with AC50 equal or less than 10 uM are considered active; type: functional; settings: read-out: AC50
# [31] = Luminescence Cell-Based Dose Retest to Confirm Inhibitors of Cancer Stem Cells. [Related pubchem assays (depositor defined):AID2717, AID2721]; type: functional; settings: Homo sapiens
# [32] = target: T5, Cytochrome P450 1A2 (Homo sapiens, UniProt P05177);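 further: PubChem cytochrome P450 panel assay, CYP1A2 panel member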
# T5 sequence (P05177 whole entry): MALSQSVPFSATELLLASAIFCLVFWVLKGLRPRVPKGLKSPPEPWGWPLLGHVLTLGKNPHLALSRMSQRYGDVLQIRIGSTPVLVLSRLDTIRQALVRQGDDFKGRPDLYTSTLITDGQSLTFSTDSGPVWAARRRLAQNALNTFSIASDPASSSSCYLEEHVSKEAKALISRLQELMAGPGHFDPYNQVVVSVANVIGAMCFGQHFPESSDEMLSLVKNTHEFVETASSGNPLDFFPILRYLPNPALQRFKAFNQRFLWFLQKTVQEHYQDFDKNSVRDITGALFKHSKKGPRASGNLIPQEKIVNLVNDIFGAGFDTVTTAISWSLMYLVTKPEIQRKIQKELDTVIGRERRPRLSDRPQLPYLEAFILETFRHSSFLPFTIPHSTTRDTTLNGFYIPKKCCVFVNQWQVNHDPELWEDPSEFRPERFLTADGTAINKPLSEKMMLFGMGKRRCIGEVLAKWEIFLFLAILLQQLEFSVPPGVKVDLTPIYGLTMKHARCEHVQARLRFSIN
# [33] = target: Cytochrome P450 2D6 (Homo sapiens, UniProt P10635);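 further: CYP2D6 member of a cytochrome P450 panel assay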
# [34] = target: NAD-dependent protein deacylase sirtuin-5, mitochondrial (Homo sapiens, UniProt Q9NXA8); experiment: SIRT5 desuccinylase inhibitors, dose response, biochemical, fluorescence imaging, cherry-pick, set 5 (AID 720591);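 further: desuccinylation of succinyl peptide AMC substrate read as fluorescence after trypsin release; potency of inhibitors that lower fluorescence and may act on trypsin instead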
# T1 sequence (P08659 whole entry): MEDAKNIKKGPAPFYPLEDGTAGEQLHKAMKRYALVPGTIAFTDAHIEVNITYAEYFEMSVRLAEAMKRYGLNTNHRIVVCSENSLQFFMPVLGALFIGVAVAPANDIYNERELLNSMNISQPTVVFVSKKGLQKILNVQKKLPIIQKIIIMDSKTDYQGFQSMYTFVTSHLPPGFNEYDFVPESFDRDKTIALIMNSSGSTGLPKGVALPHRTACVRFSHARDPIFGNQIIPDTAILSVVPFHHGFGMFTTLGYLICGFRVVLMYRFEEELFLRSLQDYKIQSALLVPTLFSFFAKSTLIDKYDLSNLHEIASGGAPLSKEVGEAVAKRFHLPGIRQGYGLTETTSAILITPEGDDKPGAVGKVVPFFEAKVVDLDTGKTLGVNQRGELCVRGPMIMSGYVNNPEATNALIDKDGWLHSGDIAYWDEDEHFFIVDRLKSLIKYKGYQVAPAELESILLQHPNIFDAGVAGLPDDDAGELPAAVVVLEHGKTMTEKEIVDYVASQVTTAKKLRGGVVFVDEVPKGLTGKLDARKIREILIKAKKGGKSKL
smiles,measurement,setting,value
O=C(Nc1cccc(O)c1)c1noc2c1CCCCC2,EC50,[1],> 100 µM (not active)
same,EC50,[2],> 50 µM (not active)
same,EC50,[3],> 30 µM (not active)
same,EC50,[4],8.89 µM (active)
same,EC50,[5],3.4 µM (active)
same,EC50,[6],2.87 µM (active)
O=C(Nc1ncc(Br)s1)C(Cc1ccccc1)n1cccc1 (stereo not drawn),EC50,[7],13.2 µM (active)
same,EC50,[8],1.33 µM (active)
same,EC50,[9],11.9 µM (active)
COc1ccc(CC(=O)Nc2nc3ccccc3s2)cc1S(=O)(=O)N1CCOCC1,IC50,[10],24.7 µM (not active)
O=C(Nc1ccc(OC(=O)c2ccccc2)c(-c2nc3ccccc3s2)c1)c1ccccc1,EC50,[11],24.2 µM (active)
same,EC50,[12],18.2 µM (active)
same,CC50,[13],> 40 µM (active)
same,IC50,[14],18.5 µM (not active)
Cc1nc2ncccn2c1-c1csc(Nc2ccc(N(C)C)cc2)n1,EC50,[15],> 120 µM (not active)
same,EC50,[16],0.128 µM (active)
same,EC50,[4],< 0.1 µM (inconclusive)
same,IC50,[17],6.91 µM (active)
same,EC50,[18],0.163 µM (active)
same,EC50,[19],0.108 µM (active)
same,IC50,[20],8.9 µM (active)
CC(=O)Nc1ccc(S(=O)(=O)N2CCC(n3cnc4cc(F)ccc43)CC2)cc1,IC50,[10],32.2 µM (not active)
CCOc1ccccc1NC(=O)Cn1nnc(C(=O)NCc2cccs2)c1N,IC50,[21],> 80 µM (inactive)
same,EC50,[15],0.146 µM (active)
same,EC50,[16],0.685 µM (active)
same,EC50,[3],< 0.1 µM (active)
same,EC50,[4],< 0.1 µM (active)
same,EC50,[18],0.696 µM (active)
same,EC50,[19],0.877 µM (active)
COc1cccc(-c2nn(C)c3sc(C(=O)N4CCN(c5ccccn5)CC4)cc23)c1,EC50,[7],14 µM (active)
same,EC50,[9],15.2 µM (active)
O=C(Nc1cnc2ccccn2c1=O)c1ccc(F)cc1,IC50,[22],> 50 µM (not active)
COc1ccc(Cn2c(C)c(C)c(C#N)c2NC(=O)Nc2cccc(C)c2)cc1,IC50,[22],> 50 µM (not active)
Cc1csc(SCC(=O)Nc2ccc(Cl)cn2)n1,EC50,[23],1.54 µM (active)
C=CCn1c(=O)c2ccccc2n2c(SCC(=O)c3ccccc3)nnc12,EC50,[24],> 79.4 µM (not active)
same,EC50,[25],> 79.4 µM (not active)
same,EC50,[26],> 79.4 µM (not active)
Cc1ccc(-c2nc3cc(N)ccc3o2)c(C)c1,EC50,[1],1.95 µM (active)
same,EC50,[2],> 50 µM (not active)
Cc1cccc(NC(=O)c2nc[nH]c2C(=O)N[C@@H](CC(C)C)C(=O)OCc2ccccc2)c1,EC50,[27],> 150 µM (not active)
same,CC50,[13],22.4 µM (active)
same,EC50,[28],2.12 µM (active)
same,EC50,[29],3.95 µM (active)
COc1cc(C(=O)NCc2cn3ccccc3n2)cc(OC)c1OC,IC50,[10],7.87 µM (active)
COC(=O)c1ccc(S(=O)(=O)c2ccc(C(=O)OC)s2)s1,EC50,[24],24.6 µM (not active)
same,EC50,[25],27.1 µM (not active)
same,EC50,[26],36.7 µM (not active)
O=C(O)CCCC(=O)Nc1cc([N+](=O)[O-])ccc1O,EC50,[24],> 79.4 µM (not active)
same,EC50,[25],> 79.4 µM (not active)
same,EC50,[26],> 79.4 µM (not active)
O=C(/C=C/c1ccccc1[N+](=O)[O-])c1ccc(F)cc1,CC50,[13],> 40 µM (active)
Oc1oc(-c2ccccc2)nc1/C=N/c1nccs1,EC50,[23],12.3 µM (not active)
CC(/C=C/c1cccc([N+](=O)[O-])c1)=N/NC(=O)c1cccnc1,EC50,[23],> 91.6 µM (not active)
CC(C)(Sc1ccc(CCN(CCCCC2CCCCC2)C(=O)NC2CCCCC2)cc1)C(=O)O [GW7647],AC50,[30],25.1 µM (inconclusive)
same,AC50,[31],4.46 µM (active)
same,AC50,[32],39.8 µM (inconclusive)
same,AC50,[33],inconclusive
same,AC50,[34],7.9 µM (active)

# Source: ChEMBL document CHEMBL1201862, “PubChem BioAssay data set” (2004)
